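Step 1: Grow cells in 96-well plates. Step 2: Expose to compound for 48 hours at 5 concentrations. Step 3: Interpolate endpoints linearly; if unreached, use highest concentration. GI50 marks 50% less growth. Definition used: TGI = concentration required for complete inhibition of growth.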
How the values were obtained:
Assay in all cases: NCI anticancer screen, dose series, 48 h
TK-10 renal = tested on: TK-10 renal
786-0 renal = tested on: 786-0 renal
NCI-H23 lung = tested on: NCI-H23 lung
SR leukemia = tested on: SR leukemia
HT29 colon = tested on: HT29 colon
RXF 393 renal = tested on: RXF 393 renal
NCI-H226 lung = tested on: NCI-H226 lung
MDA-MB-231 breast = tested on: MDA-MB-231 breast
SNB-19 CNS = tested on: SNB-19 CNS
SK-MEL-28 melanoma = tested on: SK-MEL-28 melanoma
M14 melanoma = tested on: M14 melanoma
RPMI-8226 leukemia = tested on: RPMI-8226 leukemia
ACHN renal = tested on: ACHN renal
HCT-15 colon = tested on: HCT-15 colon
HL-60(TB) leukemia = tested on: HL-60(TB) leukemia
HCC-2998 colon = tested on: HCC-2998 colon
SW-620 colon = tested on: SW-620 colon
CAKI-1 renal = tested on: CAKI-1 renal
BT-549 breast = tested on: BT-549 breast
A549 NSCLC = tested on: A549 NSCLC
T-47D breast = tested on: T-47D breast
MALME-3M melanoma = tested on: MALME-3M melanoma
KM12 colon = tested on: KM12 colon
IGROV1 ovarian = tested on: IGROV1 ovarian
NCI-H522 lung = tested on: NCI-H522 lung
OVCAR-8 ovarian = tested on: OVCAR-8 ovarian
SF-268 CNS = tested on: SF-268 CNS
HCT-116 colon = tested on: HCT-116 colon
K-562 leukemia = tested on: K-562 leukemia
MDA-MB-435 = tested on: MDA-MB-435
MOLT-4 leukemia = tested on: MOLT-4 leukemia
U251 CNS = tested on: U251 CNS
PC-3 prostate = tested on: PC-3 prostate
SK-MEL-2 melanoma = tested on: SK-MEL-2 melanoma
NCI-H460 lung = tested on: NCI-H460 lung
SK-MEL-5 melanoma = tested on: SK-MEL-5 melanoma
SF-539 CNS = tested on: SF-539 CNS
UO-31 renal = tested on: UO-31 renal
SN12C renal = tested on: SN12C renal
UACC-62 melanoma = tested on: UACC-62 melanoma
SNB-75 CNS = tested on: SNB-75 CNS
NCI/ADR-RES ovarian = tested on: NCI/ADR-RES ovarian
EKVX NSCLC = tested on: EKVX NSCLC
HOP-62 NSCLC = tested on: HOP-62 NSCLC
SK-OV-3 ovarian = tested on: SK-OV-3 ovarian
CCRF-CEM leukemia = tested on: CCRF-CEM leukemia
MCF7 breast = tested on: MCF7 breast
HS 578T breast = tested on: HS 578T breast
UACC-257 melanoma = tested on: UACC-257 melanoma
SF-295 CNS = tested on: SF-295 CNS
A498 renal = tested on: A498 renal
DU-145 prostate = tested on: DU-145 prostate

## NC(=O)c1c(NC(=O)c2ccccc2C(F)(F)F)sc2c1CCC(=O)C2
TK-10 renal
  GI50: 3.2 µM
  TGI: > 100 µM
786-0 renal
  GI50: 4.29 µM
  TGI: > 100 µM
NCI-H23 lung
  GI50: 1.34 µM
  TGI: 5.63 µM
SR leukemia
  GI50: 0.466 µM
  TGI: > 100 µM
HT29 colon
  GI50: 1.97 µM
  TGI: 6.65 µM
RXF 393 renal
  GI50: 1.37 µM
  TGI: 3.83 µM
NCI-H226 lung
  GI50: 1.97 µM
  TGI: 4.53 µM
MDA-MB-231 breast
  GI50: 1.95 µM
  TGI: 4.3 µM
SNB-19 CNS
  GI50: 3.74 µM
  TGI: > 100 µM
SK-MEL-28 melanoma
  GI50: 1.89 µM
  TGI: 5.5 µM
M14 melanoma
  GI50: 2.76 µM
  TGI: 19.9 µM
RPMI-8226 leukemia
  GI50: 0.36 µM
  TGI: > 100 µM
ACHN renal
  GI50: 1.01 µM
  TGI: 2.66 µM
HCT-15 colon
  GI50: 0.493 µM
  TGI: 2.07 µM
HL-60(TB) leukemia
  GI50: 1.1 µM
  TGI: 7.37 µM
HCC-2998 colon
  GI50: 2.88 µM
  TGI: 12.3 µM
SW-620 colon
  GI50: 0.402 µM
  TGI: 13.8 µM
CAKI-1 renal
  GI50: 1.39 µM
  TGI: 3.05 µM
BT-549 breast
  GI50: 0.947 µM
  TGI: 76.5 µM
A549 NSCLC
  GI50: 3.72 µM
  TGI: > 100 µM
T-47D breast
  GI50: 0.492 µM
  TGI: 5.71 µM
MALME-3M melanoma
  GI50: 2 µM
  TGI: 5.25 µM
KM12 colon
  GI50: 3.66 µM
  TGI: 14.6 µM
IGROV1 ovarian
  GI50: 2.46 µM
  TGI: 9.48 µM
NCI-H522 lung
  GI50: 0.391 µM
  TGI: 1.92 µM
OVCAR-8 ovarian
  GI50: 2.6 µM
  TGI: > 100 µM
SF-268 CNS
  GI50: 3.6 µM
  TGI: > 100 µM
HCT-116 colon
  GI50: 0.493 µM
  TGI: 8.14 µM
K-562 leukemia
  GI50: 0.412 µM
  TGI: > 100 µM
MDA-MB-435
  GI50: 2.94 µM
  TGI: 8.7 µM
MOLT-4 leukemia
  GI50: 2.02 µM
  TGI: 22.3 µM
U251 CNS
  GI50: 0.99 µM
  TGI: 19.1 µM
PC-3 prostate
  GI50: 0.307 µM
  TGI: 4.43 µM
SK-MEL-2 melanoma
  GI50: 2.5 µM
  TGI: 6.84 µM
NCI-H460 lung
  GI50: 3.52 µM
  TGI: 16 µM
SK-MEL-5 melanoma
  GI50: 1.78 µM
  TGI: 3.45 µM
SF-539 CNS
  GI50: 0.605 µM
  TGI: 2.09 µM
UO-31 renal
  GI50: 1.12 µM
  TGI: 2.33 µM
SN12C renal
  GI50: 2.59 µM
  TGI: 12.6 µM
UACC-62 melanoma
  GI50: 1.29 µM
  TGI: 3.19 µM
SNB-75 CNS
  GI50: 1.95 µM
  TGI: 8.2 µM
NCI/ADR-RES ovarian
  GI50: 2.33 µM
  TGI: 18.3 µM
EKVX NSCLC
  GI50: 2.81 µM
  TGI: 12.1 µM
HOP-62 NSCLC
  GI50: 3.97 µM
  TGI: > 100 µM
SK-OV-3 ovarian
  GI50: 3.47 µM
  TGI: > 100 µM
CCRF-CEM leukemia
  GI50: 0.429 µM
  TGI: > 100 µM
MCF7 breast
  GI50: 2.24 µM
  TGI: 9.87 µM
HS 578T breast
  GI50: 3.04 µM
  TGI: > 100 µM
UACC-257 melanoma
  GI50: 2.48 µM
  TGI: 7.38 µM
SF-295 CNS
  GI50: 2.55 µM
  TGI: 7.71 µM
A498 renal
  GI50: 9.93 µM
  TGI: 40.3 µM
DU-145 prostate
  GI50: 4.54 µM
  TGI: > 100 µM

Source: PubChem BioAssay (NCI)
